# “And” between values parts separate entries of the source, which are not always exact repeats. Equal values may be shown once. Read-outs that look alike come from different tables or passages of the source.
# Assays:
# DPP9 [1] = target: T1, DPP9 (Homo sapiens, UniProt Q86TI2); assay: Time-dependent DPP9 inhibition kinetics (kobs, KI, kinact, kapp); assay type: biochemical; set-up: purchased Proteros Biostructures GmbH, Germany; settings: for kobs: n=3
# Procedure: (§1) To calculate the reaction rate of covalent bond formation between DPP proteins and inhibitor, kinact, KI and kapp was determined as previously described[30],[51]. Therefore, 250 µM GP-AMC was added simultaneously with a serial dilution of the inhibitor to 10 nM enzyme. Enzyme activity was measured for a maximum of 120 min at 30 °C, and fluorescence intensities were then plotted against time. Data was fitted to the following equation: Y=(vi/kobs)*(1−exp(−kobs*X)) using Graph-Pad Prism v10.2.3. The obtained pseudo-first-order rate constant was used to determine the maximum enzyme inhibition rate (kinact) and binding affinity (KI) by fitting the plot of kobs against inhibitor concentration to the following equation: Y=kinact/1+(KI/[I]) . The efficiency of covalent bond formation (kapp) was calculated by the ratio of kinact/KI. All measurements were performed in triplicates and error bars represent standard errors of the fit.
# DPP4 [2] = target: T2, DPP4 (Homo sapiens, UniProt P27487); assay: biochemical; assay type: biochemical; settings: for DPP4 activity [%]: replicates
# T2 construct: purchased Proteros Biostructures GmbH, Germany
# Procedure: (§2) Enzyme activity of DPP4, DPP8, DPP9 (Proteros Biostructures GmbH, Germany) and PREP (Sigma Aldrich, USA) was determined by measuring the initial velocity of AMC release from the fluorogenic substrate GP-AMC (Sigma Aldrich, USA) using a Tecan Spark® 10 M multimode microplate reader (Tecan Group Ltd., Switzerland) in activity buffer (20 mM HEPES/KOH pH 7.3, 110 mM potassium acetate, 2 mM Mg acetate, 0.5 mM EGTA, 0.02% Tween 20, supplemented with 1 mM DTT) and a final volume of 20 μL for maximal 60 min at 30 °C. Prior to activity measurement, 10 nM enzyme was incubated for 45 min at 30 °C and gentle shaking with the inhibitor compounds in concentrations ranging from 0 to 100 μM. The compounds were dissolved in DMSO and diluted in activity buffer (final DMSO concentration: 1%). […] IC50 values were calculated using Graph-Pad Prism v10.2.3 using the equation: [Inhibitor] vs. response—Variable slope (four parameters). All measurements were performed in triplicates and error bars represent standard errors of the fit.
# DPP8 [3] = target: T3, DPP8 (Homo sapiens, UniProt Q6V1X1); assay: biochemical; assay type: biochemical; settings: for DPP8 activity [%]: replicates
# T3 construct: purchased Proteros Biostructures GmbH, Germany
# Procedure: as §2
# [4] = target: T4, HEK293 cell lysates (proteome-wide targets of probe 9) (Homo sapiens, UniProt P09211); assay: Competitive ABPP / direct target identification with alkyne probe 9 in HEK293 cell lysates; assay type: binding, H. sapiens; settings: protein GSTP1
# T4 construct: endogenous in cells; host or cells: HEK293 cell lysate
# [5] = target: T5, HEK293 cell lysates (proteome-wide targets of probe 9) (Homo sapiens, UniProt Q9H6P5); assay: as above; assay type: binding, H. sapiens; settings: protein TASP1 (Threonine aspartase 1)
# T5 construct: endogenous in cells; host or cells: HEK293 cell lysate
# [6] = target: T6, HEK293 cell lysates (proteome-wide targets of probe 9) (Homo sapiens, UniProt P07814); assay: as above; assay type: binding, H. sapiens; settings: protein EPRS
# T6 construct: endogenous in cells; host or cells: HEK293 cell lysate
# [7] = target: T7, HEK293 cell lysates (proteome-wide targets of probe 9) (Homo sapiens, UniProt P07195); assay: as above; assay type: binding, H. sapiens; settings: protein LDHB
# T7 construct: endogenous in cells; host or cells: HEK293 cell lysate
# DPP8 [8] = target: T3, DPP8; assay: Time-dependent DPP8 inhibition kinetics (kobs, KI, kinact, kapp); assay type: biochemical; settings: for kobs: n=3
# Procedure: as §1
# DPP9 [9] = target: T1, DPP9; assay: biochemical; assay type: biochemical; set-up: purchased Proteros Biostructures GmbH, Germany; settings: for DPP9 activity [%]: replicates
# Procedure: as §2
# DPP4 [10] = target: T2, DPP4; assay type: biochemical; settings: for kobs: n=3
# Procedure: as §1, with “Therefore, 250 µM GP-AMC was added simultaneously with a serial dilution of the inhibitor to 10 nM enzyme.” left out
# [11] = irreversible inhibition, fit of kobs vs inhibitor concentration
# T1 sequence (Q86TI2 whole entry): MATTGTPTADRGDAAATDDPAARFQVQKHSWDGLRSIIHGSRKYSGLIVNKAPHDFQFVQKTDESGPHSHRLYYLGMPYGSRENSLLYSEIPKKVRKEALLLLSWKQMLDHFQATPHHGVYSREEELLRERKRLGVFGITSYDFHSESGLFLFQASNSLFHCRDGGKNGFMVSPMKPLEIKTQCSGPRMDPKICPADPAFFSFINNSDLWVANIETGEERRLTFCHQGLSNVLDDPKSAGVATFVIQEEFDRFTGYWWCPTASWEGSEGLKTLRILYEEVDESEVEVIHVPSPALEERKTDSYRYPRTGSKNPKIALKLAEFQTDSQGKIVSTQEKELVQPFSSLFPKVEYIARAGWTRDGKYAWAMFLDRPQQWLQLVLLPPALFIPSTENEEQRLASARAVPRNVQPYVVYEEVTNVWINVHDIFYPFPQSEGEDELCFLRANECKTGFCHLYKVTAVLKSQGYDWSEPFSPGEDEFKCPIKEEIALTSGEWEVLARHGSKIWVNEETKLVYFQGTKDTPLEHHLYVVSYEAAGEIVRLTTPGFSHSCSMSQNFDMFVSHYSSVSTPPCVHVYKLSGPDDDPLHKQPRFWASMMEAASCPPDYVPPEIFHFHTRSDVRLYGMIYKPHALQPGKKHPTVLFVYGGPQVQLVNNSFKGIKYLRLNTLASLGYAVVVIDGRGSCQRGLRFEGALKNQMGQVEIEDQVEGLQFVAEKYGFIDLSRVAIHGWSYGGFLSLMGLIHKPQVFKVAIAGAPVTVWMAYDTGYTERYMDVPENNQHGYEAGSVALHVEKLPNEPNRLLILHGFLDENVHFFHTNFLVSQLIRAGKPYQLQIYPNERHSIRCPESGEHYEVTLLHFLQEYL
# T2 sequence (P27487 whole entry): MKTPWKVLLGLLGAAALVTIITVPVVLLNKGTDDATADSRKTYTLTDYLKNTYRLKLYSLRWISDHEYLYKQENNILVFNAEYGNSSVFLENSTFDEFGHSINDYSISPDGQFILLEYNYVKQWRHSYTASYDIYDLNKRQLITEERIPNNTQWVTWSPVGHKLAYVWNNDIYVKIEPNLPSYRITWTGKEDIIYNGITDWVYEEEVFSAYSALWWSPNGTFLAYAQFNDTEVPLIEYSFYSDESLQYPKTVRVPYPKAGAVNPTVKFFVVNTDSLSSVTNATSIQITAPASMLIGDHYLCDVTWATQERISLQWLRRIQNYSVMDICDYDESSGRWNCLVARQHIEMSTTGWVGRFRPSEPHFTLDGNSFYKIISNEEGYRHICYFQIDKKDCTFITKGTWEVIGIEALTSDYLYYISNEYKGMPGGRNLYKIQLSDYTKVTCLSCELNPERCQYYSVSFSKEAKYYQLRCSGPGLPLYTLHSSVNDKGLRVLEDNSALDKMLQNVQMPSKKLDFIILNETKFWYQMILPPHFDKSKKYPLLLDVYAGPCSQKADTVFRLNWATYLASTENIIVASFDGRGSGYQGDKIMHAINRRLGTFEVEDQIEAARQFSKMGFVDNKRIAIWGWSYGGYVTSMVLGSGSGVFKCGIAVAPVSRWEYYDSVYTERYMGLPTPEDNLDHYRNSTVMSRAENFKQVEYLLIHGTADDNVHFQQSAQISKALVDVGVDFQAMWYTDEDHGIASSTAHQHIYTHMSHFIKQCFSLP
# T3 sequence (Q6V1X1 whole entry): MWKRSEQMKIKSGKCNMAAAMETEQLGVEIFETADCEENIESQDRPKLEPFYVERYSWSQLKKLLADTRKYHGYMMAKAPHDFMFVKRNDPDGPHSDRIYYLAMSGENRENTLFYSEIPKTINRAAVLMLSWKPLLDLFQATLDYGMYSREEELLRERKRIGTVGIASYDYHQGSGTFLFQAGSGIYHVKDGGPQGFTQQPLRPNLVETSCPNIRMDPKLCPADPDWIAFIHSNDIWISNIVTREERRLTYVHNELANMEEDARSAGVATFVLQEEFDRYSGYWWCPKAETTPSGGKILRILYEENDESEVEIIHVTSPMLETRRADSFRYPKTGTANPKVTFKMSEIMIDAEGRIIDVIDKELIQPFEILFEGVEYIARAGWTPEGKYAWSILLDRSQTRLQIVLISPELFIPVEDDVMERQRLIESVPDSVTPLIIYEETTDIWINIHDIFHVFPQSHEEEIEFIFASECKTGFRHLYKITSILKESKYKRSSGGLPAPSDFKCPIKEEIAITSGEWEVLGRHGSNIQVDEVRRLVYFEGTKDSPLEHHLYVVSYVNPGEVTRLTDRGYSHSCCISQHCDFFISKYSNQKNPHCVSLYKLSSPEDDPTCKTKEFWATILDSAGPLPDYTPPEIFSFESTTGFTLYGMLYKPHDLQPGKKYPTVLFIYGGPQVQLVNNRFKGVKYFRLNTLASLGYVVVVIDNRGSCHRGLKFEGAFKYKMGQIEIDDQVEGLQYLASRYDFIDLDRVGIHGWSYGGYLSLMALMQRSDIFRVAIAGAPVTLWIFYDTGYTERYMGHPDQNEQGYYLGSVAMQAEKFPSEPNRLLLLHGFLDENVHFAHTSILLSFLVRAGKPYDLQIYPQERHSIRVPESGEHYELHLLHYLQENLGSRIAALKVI
# T6 sequence (P07814 whole entry): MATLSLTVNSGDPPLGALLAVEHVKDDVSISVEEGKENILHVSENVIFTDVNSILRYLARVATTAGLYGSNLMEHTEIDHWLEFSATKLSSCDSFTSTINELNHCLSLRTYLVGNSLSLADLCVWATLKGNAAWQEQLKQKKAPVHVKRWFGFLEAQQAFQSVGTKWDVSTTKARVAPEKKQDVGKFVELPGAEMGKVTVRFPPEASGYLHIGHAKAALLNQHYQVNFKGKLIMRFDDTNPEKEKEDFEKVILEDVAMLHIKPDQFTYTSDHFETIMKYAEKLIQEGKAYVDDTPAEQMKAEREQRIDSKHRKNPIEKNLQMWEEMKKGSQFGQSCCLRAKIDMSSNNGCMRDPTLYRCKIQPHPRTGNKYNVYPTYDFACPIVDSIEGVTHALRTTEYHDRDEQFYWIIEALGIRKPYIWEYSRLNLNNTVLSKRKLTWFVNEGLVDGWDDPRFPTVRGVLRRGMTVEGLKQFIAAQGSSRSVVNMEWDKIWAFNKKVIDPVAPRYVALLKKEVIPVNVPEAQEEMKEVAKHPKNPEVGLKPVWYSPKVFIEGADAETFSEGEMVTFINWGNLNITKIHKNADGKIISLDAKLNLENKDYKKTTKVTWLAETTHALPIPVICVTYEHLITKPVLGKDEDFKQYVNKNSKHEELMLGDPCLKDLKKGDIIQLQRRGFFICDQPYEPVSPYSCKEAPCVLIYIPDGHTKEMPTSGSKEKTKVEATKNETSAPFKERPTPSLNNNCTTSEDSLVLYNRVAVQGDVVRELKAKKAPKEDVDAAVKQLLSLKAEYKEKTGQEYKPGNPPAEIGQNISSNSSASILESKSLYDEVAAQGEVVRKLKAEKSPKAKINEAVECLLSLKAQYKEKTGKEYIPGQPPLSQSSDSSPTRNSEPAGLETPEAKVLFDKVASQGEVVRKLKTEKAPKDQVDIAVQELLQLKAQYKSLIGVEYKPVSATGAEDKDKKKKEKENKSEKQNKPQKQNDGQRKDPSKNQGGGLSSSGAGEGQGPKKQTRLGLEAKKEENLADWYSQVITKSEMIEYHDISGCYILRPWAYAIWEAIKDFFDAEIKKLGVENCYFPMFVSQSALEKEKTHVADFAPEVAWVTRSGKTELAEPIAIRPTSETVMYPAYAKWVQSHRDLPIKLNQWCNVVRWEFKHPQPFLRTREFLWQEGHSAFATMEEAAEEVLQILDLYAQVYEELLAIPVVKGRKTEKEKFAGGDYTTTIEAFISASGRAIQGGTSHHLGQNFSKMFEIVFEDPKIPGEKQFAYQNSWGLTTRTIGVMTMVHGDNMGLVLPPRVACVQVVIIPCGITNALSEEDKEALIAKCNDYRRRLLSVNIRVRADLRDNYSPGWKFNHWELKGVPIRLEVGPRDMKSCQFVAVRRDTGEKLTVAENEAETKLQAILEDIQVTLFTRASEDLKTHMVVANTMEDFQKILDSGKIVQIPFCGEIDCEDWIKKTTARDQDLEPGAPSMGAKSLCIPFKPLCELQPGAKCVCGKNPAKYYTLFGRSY
# T4 sequence (P09211 whole entry): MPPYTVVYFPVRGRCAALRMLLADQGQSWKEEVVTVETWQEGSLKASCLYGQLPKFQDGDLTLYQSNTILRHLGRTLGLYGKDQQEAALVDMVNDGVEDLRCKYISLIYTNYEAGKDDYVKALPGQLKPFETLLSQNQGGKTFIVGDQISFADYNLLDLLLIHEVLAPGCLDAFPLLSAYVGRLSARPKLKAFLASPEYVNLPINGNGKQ
# T7 sequence (P07195 whole entry): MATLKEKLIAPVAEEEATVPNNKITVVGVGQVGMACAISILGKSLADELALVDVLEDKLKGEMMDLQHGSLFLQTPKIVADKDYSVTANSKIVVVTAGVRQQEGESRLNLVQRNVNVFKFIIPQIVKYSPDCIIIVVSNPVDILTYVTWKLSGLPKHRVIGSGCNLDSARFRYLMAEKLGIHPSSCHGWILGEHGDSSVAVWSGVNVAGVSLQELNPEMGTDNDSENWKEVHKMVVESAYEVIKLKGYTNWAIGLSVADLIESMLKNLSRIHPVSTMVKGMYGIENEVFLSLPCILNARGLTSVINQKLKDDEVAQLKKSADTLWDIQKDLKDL
# T5 sequence (Q9H6P5 whole entry): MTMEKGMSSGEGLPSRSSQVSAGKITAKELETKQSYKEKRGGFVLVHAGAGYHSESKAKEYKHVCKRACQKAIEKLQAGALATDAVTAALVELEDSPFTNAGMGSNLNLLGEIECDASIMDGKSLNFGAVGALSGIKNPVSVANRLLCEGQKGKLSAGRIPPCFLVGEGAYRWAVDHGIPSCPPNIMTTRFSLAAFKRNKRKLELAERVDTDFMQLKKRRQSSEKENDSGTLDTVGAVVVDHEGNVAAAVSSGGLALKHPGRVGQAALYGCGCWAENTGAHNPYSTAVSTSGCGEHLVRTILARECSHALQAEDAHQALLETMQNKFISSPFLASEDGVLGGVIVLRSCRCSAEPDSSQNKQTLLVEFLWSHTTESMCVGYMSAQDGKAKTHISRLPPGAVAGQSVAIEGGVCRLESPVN
structure (smiles),measurement,setting,value
C#CCCCP(=O)(OCC)N1CCCC(N)C1=O.O=C(O)C(F)(F)F (mixture of isomers) [Compound 9],kapp,DPP9 [1]; DPP9,68.49 M⁻¹ s⁻¹
same,kinact best fit,DPP9 [1]; DPP9,0.0003473 s⁻¹
same,kobs,"DPP9 [1]; DPP9, c 312.5 nM",2.92e-05 s⁻¹
same,kobs,"DPP9 [1]; DPP9, c 625 nM",4.78e-05 s⁻¹
same,kobs,"DPP9 [1]; DPP9, c 2500 nM",0.000103 s⁻¹
same,KI (inactivation),"DPP9 [1]; DPP9, fit of kobs vs inhibitor concentration, read-out: KI best fit",5.07 µM
same,KI (inactivation),"DPP9 [1]; DPP9, read-out: KI best fit",5.07 µM
same,kinact DPP9,DPP9 [1]; [11],0.00035 ± 0.00007 s⁻¹
same,KI (inactivation),"DPP9 [1]; irreversible inhibition, fit of kobs vs inhibitor concentration, read-out: KI DPP9",5.07 µM
same,kapp DPP9,DPP9 [1]; ratio kinact/KI,68 M⁻¹ s⁻¹
same,IC50,"DPP4 [2]; GP-AMC 250 µM, 10 nM enzyme, 45 min pre-incubation at 30 °C, read-out: IC50 DPP4",2.99 ± 0.97 µM
same,DPP4 activity [%],DPP4 [2]; c 1562.5 nM,65.3186% and 69.0903% and 69.4857%
same,DPP4 activity [%],DPP4 [2]; c 3125 nM,56.1551% and 36.739%
same,DPP4 activity [%],DPP4 [2]; c 6250 nM,16.7655% and 22.4037% and 25.1515%
same,DPP4 activity [%],DPP4 [2]; c 25000 nM,0.4601% and 0.7453% and 0.687%
same,DPP4 activity [%],DPP4 [2]; c 50000 nM,0.1815% and 0.2139% and 0.1037%
same,DPP4 activity [%],DPP4 [2]; c 100000 nM,0.1102% and 0.02592% and 0.006479%
same,potency relative to C8-alkyne compound 10,"DPP8 [3]; DPP8/9 IC50, fold more potent",about 20 fold
same,IC50,"DPP8 [3]; GP-AMC 250 µM, 10 nM enzyme, 45 min pre-incubation at 30 °C, read-out: IC50 DPP8",0.668 ± 0.043 µM
same,DPP8 activity [%],DPP8 [3]; c 15.625 nM,88.0116% and 95.2585% and 92.8653%
same,DPP8 activity [%],DPP8 [3]; c 31.25 nM,98.7519% and 93.0125% and 99.7656%
same,DPP8 activity [%],DPP8 [3]; c 62.5 nM,100.514% and 96.8883% and 98.9251%
same,DPP8 activity [%],DPP8 [3]; c 250 nM,89.8086% and 92.0804% and 74.9743%
same,DPP8 activity [%],DPP8 [3]; c 312.5 nM,76.3712% and 75.8504% and 60.7309%
same,DPP8 activity [%],DPP8 [3]; c 500 nM,58.2452% and 66.831% and 55.6678%
same,DPP8 activity [%],DPP8 [3]; c 625 nM,43.0971% and 49.0696% and 43.2225%
same,DPP8 activity [%],DPP8 [3]; c 1000 nM,45.7318% and 41.4388% and 38.9079%
same,DPP8 activity [%],DPP8 [3]; c 1562.5 nM,30.9827% and 31.9714% and 36.8996%
same,DPP8 activity [%],DPP8 [3]; c 2500 nM,6.46% and 6.6893% and 8.361%
same,DPP8 activity [%],DPP8 [3]; c 3125 nM,13.5787% and 24.1011% and 12.0301%
same,DPP8 activity [%],DPP8 [3]; c 5000 nM,1.65% and 1.018% and 2.196%
same,DPP8 activity [%],DPP8 [3]; c 6250 nM,4.899% and 5.3654% and 4.34%
same,DPP8 activity [%],DPP8 [3]; c 10000 nM,0.2086% and 0.07371% and -0.1898%
same,DPP8 activity [%],DPP8 [3]; c 25000 nM,1.765% and 1.4465% and 2.043%
same,DPP8 activity [%],DPP8 [3]; c 50000 nM,2.554% and 1.757% and 1.4548%
same,DPP8 activity [%],DPP8 [3]; c 100000 nM,1.577% and 1.418% and 1.083%
same,potency relative to alkyl compound 5,DPP8 [3]; fold more potent inhibitor,about 20 fold
same,Log2-fold change (9/DMSO),[4],1.848
same,Log2-fold change (9/DMSO),[5],-4.505
same,Log2-fold change (9/DMSO),[6],0.7172
same,Log2-fold change (9/DMSO),[7],0.03494
same,kapp,DPP8 [8]; DPP8,170.93 M⁻¹ s⁻¹
same,kinact best fit,DPP8 [8]; DPP8,0.0005333 s⁻¹
same,kobs,"DPP8 [8]; DPP8, c 312.5 nM",5.77e-05 s⁻¹
same,kobs,"DPP8 [8]; DPP8, c 625 nM",8.71e-05 s⁻¹
same,kobs,"DPP8 [8]; DPP8, c 2500 nM",0.000239 s⁻¹
same,KI (inactivation),"DPP8 [8]; DPP8, fit of kobs vs inhibitor concentration, read-out: KI best fit",3.12 µM
same,KI (inactivation),"DPP8 [8]; DPP8, read-out: KI best fit",3.12 µM
same,kinact DPP8,DPP8 [8]; [11],0.00053 ± 0.00004 s⁻¹
same,KI (inactivation),"DPP8 [8]; irreversible inhibition, fit of kobs vs inhibitor concentration, read-out: KI DPP8",3.12 µM
same,kapp DPP8,DPP8 [8]; ratio kinact/KI,171 M⁻¹ s⁻¹
same,IC50,"DPP9 [9]; GP-AMC 250 µM, 10 nM enzyme, 45 min pre-incubation at 30 °C, read-out: IC50 DPP9",1.57 ± 0.092 µM
same,DPP9 activity [%],DPP9 [9]; c 156.25 nM,96.2584% and 100.319% and 101.85%
same,DPP9 activity [%],DPP9 [9]; c 312.5 nM,100.858% and 91.3501% and 92.0123%
same,DPP9 activity [%],DPP9 [9]; c 625 nM,84.7331% and 76.9427% and 84.4618%
same,DPP9 activity [%],DPP9 [9]; c 1562.5 nM,49.8961% and 58.6041% and 49.6299%
same,DPP9 activity [%],DPP9 [9]; c 2500 nM,31.5472% and 27.5156% and 32.2809%
same,DPP9 activity [%],DPP9 [9]; c 3125 nM,24.6772% and 31.33% and 43.1829%
same,DPP9 activity [%],DPP9 [9]; c 5000 nM,13.8796% and 12.6206% and 14.7121%
same,DPP9 activity [%],DPP9 [9]; c 6250 nM,10.217% and 12.6398% and 8.944%
same,DPP9 activity [%],DPP9 [9]; c 10000 nM,3.977% and 3.748% and 3.468%
same,DPP9 activity [%],DPP9 [9]; c 25000 nM,1.6052% and 1.507% and 1.185%
same,DPP9 activity [%],DPP9 [9]; c 50000 nM,0.4873% and 0.1919% and 0.2191%
same,DPP9 activity [%],DPP9 [9]; c 100000 nM,-0.1705% and -0.1127% and 0.03998%
same,kapp,DPP4 [10]; DPP4,481.66 M⁻¹ s⁻¹
same,kinact best fit,DPP4 [10]; DPP4,0.005372 s⁻¹
same,kobs,"DPP4 [10]; DPP4, c 6250 nM",0.002232 s⁻¹
same,kobs,"DPP4 [10]; DPP4, c 25000 nM",0.003486 s⁻¹
same,kobs,"DPP4 [10]; DPP4, c 50000 nM",0.004579 s⁻¹
same,KI (inactivation),"DPP4 [10]; DPP4, fit of kobs vs inhibitor concentration, read-out: KI best fit",11.2 µM
same,KI (inactivation),"DPP4 [10]; DPP4, read-out: KI best fit",11.2 µM
same,kinact DPP4,DPP4 [10]; [11],0.00537 ± 0.00033 s⁻¹
same,KI (inactivation),"DPP4 [10]; irreversible inhibition, fit of kobs vs inhibitor concentration, read-out: KI DPP4",11.2 µM
same,kapp DPP4,DPP4 [10]; ratio kinact/KI,482 M⁻¹ s⁻¹

# From article PMC11968843, “Sulphostin-inspired N-phosphonopiperidones as selective covalent DPP8 and DPP9 inhibitors” (Nature Communications, 2025)
